Active and inactive are the calls of the source. No cut-off for these calls is given here.
How the values were obtained:
[1] = tested on: HL-60(TB); test: Antiproliferative activity against human HL-60 (TB) cells assessed as cell growth at 10 uM incubated for 48 hrs by sulforhodamine B assay relative to control; format: functional; conditions: read-out: Activity
[2] = tested on: SR; test: Antiproliferative activity against human SR cells assessed as cell growth at 10 uM incubated for 48 hrs by sulforhodamine B assay relative to control; format: functional; conditions: read-out: Activity
[3] = tested on: A549; test: Antiproliferative activity against human A549/ATCC cells assessed as cell growth at 10 uM incubated for 48 hrs by sulforhodamine B assay relative to control; format: functional; conditions: read-out: Activity
[4] = tested on: EKVX; test: Antiproliferative activity against human EKVX cells assessed as cell growth at 10 uM incubated for 48 hrs by sulforhodamine B assay relative to control; format: functional; conditions: read-out: Activity
[5] = tested on: HOP-62; test: Antiproliferative activity against human HOP-62 cells assessed as cell growth at 10 uM incubated for 48 hrs by sulforhodamine B assay relative to control; format: functional; conditions: read-out: Activity
[6] = tested on: NCI-H226; test: Antiproliferative activity against human NCI-H226 cells assessed as cell growth at 10 uM incubated for 48 hrs by sulforhodamine B assay relative to control; format: functional; conditions: read-out: Activity
[7] = tested on: NCI-H460; test: Antiproliferative activity against human NCI-H460 cells assessed as cell growth at 10 uM incubated for 48 hrs by sulforhodamine B assay relative to control; format: functional; conditions: read-out: Activity
[8] = tested on: HCT-15; test: Antiproliferative activity against human HCT-15 cells assessed as cell growth at 10 uM incubated for 48 hrs by sulforhodamine B assay relative to control; format: functional; conditions: read-out: Activity
[9] = tested on: SF-295; test: Antiproliferative activity against human SF-295 cells assessed as cell growth at 10 uM incubated for 48 hrs by sulforhodamine B assay relative to control; format: functional; conditions: read-out: Activity
[10] = tested on: U-251; test: Antiproliferative activity against human U-251 cells assessed as cell growth at 10 uM incubated for 48 hrs by sulforhodamine B assay relative to control; format: functional; conditions: read-out: Activity
[11] = tested on: SK-MEL-28; test: Antiproliferative activity against human SK-MEL-28 cells assessed as cell growth at 10 uM incubated for 48 hrs by sulforhodamine B assay relative to control; format: functional; conditions: read-out: Activity
[12] = tested on: SK-MEL-5; test: Antiproliferative activity against human SK-MEL-5 cells assessed as cell growth at 10 uM incubated for 48 hrs by sulforhodamine B assay relative to control; format: functional; conditions: read-out: Activity
[13] = tested on: OVCAR-4; test: Antiproliferative activity against human OVCAR-4 cells assessed as cell growth at 10 uM incubated for 48 hrs by sulforhodamine B assay relative to control; format: functional; conditions: read-out: Activity
[14] = tested on: SK-OV-3; test: Antiproliferative activity against human SK-OV-3 cells assessed as cell growth at 10 uM incubated for 48 hrs by sulforhodamine B assay relative to control; format: functional; conditions: read-out: Activity
[15] = tested on: 786-0; test: Antiproliferative activity against human 786-0 cells assessed as cell growth at 10 uM incubated for 48 hrs by sulforhodamine B assay relative to control; format: functional; conditions: read-out: Activity
[16] = tested on: PC-3; test: Antiproliferative activity against human PC-3 cells assessed as cell growth at 10 uM incubated for 48 hrs by sulforhodamine B assay relative to control; format: functional; conditions: read-out: Activity
[17] = tested on: MCF7; test: Antiproliferative activity against human MCF7 cells assessed as cell growth at 10 uM incubated for 48 hrs by sulforhodamine B assay relative to control; format: functional; conditions: read-out: Activity
[18] = tested on: T47D; test: Antiproliferative activity against human T47D cells assessed as cell growth at 10 uM incubated for 48 hrs by sulforhodamine B assay relative to control; format: functional; conditions: read-out: Activity
[19] = tested on: MDA-MB-468; test: Antiproliferative activity against human MDA-MB-468 cells assessed as cell growth at 10 uM incubated for 48 hrs by sulforhodamine B assay relative to control; format: functional; conditions: read-out: Activity
[20] = tested on: HCT-116; test: Antiproliferative activity against human HCT-116 cells assessed as cell growth inhibition measured after 72 hrs by crystal violet staining based assay; format: functional; conditions: HCT-116, 72 h
[21] = tested on: NCI-H460; test: Antiproliferative activity against human NCI-H460 cells assessed as cell growth inhibition measured after 72 hrs by crystal violet staining based assay; format: functional; conditions: NCI-H460, 72 h
[22] = tested on: PNT2; test: Cytotoxicity against human PNT2 cells assessed as reduction in cell viability at 4 times IC50 measured after 72 hrs by crystal violet staining based assay; conditions: pnt2, 72 h
[23] = tested on: NCI-H460; test: Inhibition of colony formation in human NCI-H460 cells assessed as reduction in colony formation incubated for 15 days and subsequent media replacement with compound for every 72 hrs by crystal violet staining based assay; format: functional, cell-based; conditions: dose 5-20 µM, time 15.0 day
[24] = tested on: NCI-H460; test: Induction of ROS production in human NCI-H460 cells incubated for 24 hrs by CM-H2DCFDA probe based flow cytometry analysis; format: functional, cell-based; conditions: dose 5-20 µM
[25] = tested on: NCI-H460; test: Induction of ROS production in human NCI-H460 cells at 20 uM incubated for 24 hrs by CM-H2DCFDA probe based flow cytometry analysis; format: functional, cell-based
[26] = tested on: NCI-H460; test: Cell cycle arrest in human NCI-H460 cells assessed as accumulation of cells in G1 phase at 5 uM measured after 72 hrs by propidium iodide/RNase staining based flow cytometry analysis (Rvb= 62.9%); format: functional
[27] = tested on: NCI-H460; test: Cell cycle arrest in human NCI-H460 cells assessed as accumulation of cells in G1 phase at 10 uM measured after 72 hrs by propidium iodide/RNase staining based flow cytometry analysis (Rvb= 62.9%); format: functional
[28] = tested on: NCI-H460; test: Cell cycle arrest in human NCI-H460 cells assessed as accumulation of cells in G2/M phase at 10 uM measured after 72 hrs by propidium iodide/RNase staining based flow cytometry analysis (Rvb= 10.22%); format: functional
[29] = tested on: NCI-H460; test: Cell cycle arrest in human NCI-H460 cells assessed as accumulation of cells in G2/M phase at 20 uM measured after 72 hrs by propidium iodide/RNase staining based flow cytometry analysis (Rvb= 10.22%); format: functional
[30] = tested on: NCI-H460; test: Induction of apoptosis in human NCI-H460 cells assessed as late apoptotic cells at 5 uM measured after 72 hrs by Annexin V-FITC and propidium iodide staining based flow cytometry analysis (Rvb= 6.93%); format: functional
[31] = tested on: NCI-H460; test: Induction of apoptosis in human NCI-H460 cells assessed as early apoptotic cells at 10 uM measured after 72 hrs by Annexin V-FITC and propidium iodide staining based flow cytometry analysis (Rvb= 6.61%); format: functional
[32] = tested on: NCI-H460; test: Induction of apoptosis in human NCI-H460 cells assessed as early apoptotic cells at 20 uM measured after 72 hrs by Annexin V-FITC and propidium iodide staining based flow cytometry analysis (Rvb= 6.61%); format: functional
[33] = tested on: NCI-H460; test: Induction of apoptosis in human NCI-H460 cells assessed as decrease in pro-caspase3 expression level at 1 to 20 uM measured after 72 hrs by western blot analysis; format: functional, cell-based; conditions: dose 1-20 µM
[34] = tested on: NCI-H460; test: Antimigratory activity against human NCI-H460 cells assessed as reduction in vimentin expression level at 1 to 20 uM measured after 72 hrs by western blot analysis; format: functional, cell-based; conditions: dose 1-20 µM
[35] = tested on: NCI-H460; test: Effect on total ERK expression in human NCI-H460 cells at 1 to 20 uM measured after 72 hrs by western blot analysis; format: functional, cell-based; conditions: dose 1-20 µM
[36] = tested on: NCI-H460; test: Effect on p53 expression in human NCI-H460 cells at 1 to 20 uM measured after 72 hrs by western blot analysis; format: functional, cell-based; conditions: dose 1-20 µM
[37] = tested on: NCI-H460; test: Reduction in VEGFR2 mRNA expression in human NCI-H460 cells at 10 to 20 uM by real-time qPCR analysis; format: functional, cell-based; conditions: dose 10-20 µM

Structure (SMILES) | growth at 10 µM [1] | growth at 10 µM [2] | growth at 10 µM [3] | growth at 10 µM [4] | growth at 10 µM [5] | growth at 10 µM [6] | growth at 10 µM [7] | growth at 10 µM [8] | growth at 10 µM [9] | growth at 10 µM [10] | growth at 10 µM [11] | growth at 10 µM [12] | growth at 10 µM [13] | growth at 10 µM [14] | growth at 10 µM [15] | growth at 10 µM [16] | growth at 10 µM [17] | growth at 10 µM [18] | growth at 10 µM [19] | IC50 [20] | further results
COc1cc(CNC(=O)CCCC/C=C/C(C)C)ccc1OCc1nnc(Nc2cccc(Br)c2)o1 | 79.8% | 67.7% | 95.4% | 78.1% | 75.6% | 50.4% | 97.5% | 90.2% | 84.2% | 102% | 107% | 89.8% | 85.1% | 82.6% | 95.6% | 87.9% | 83.7% | 58.9% | 48.1% | – | –
COc1cc(CNC(=O)CCCC/C=C/C(C)C)ccc1OCc1nnc(SCCc2c[nH]c3ccccc23)o1 | 50.2% | 49.3% | 79.4% | 57.4% | 92.8% | 67.2% | 89.8% | 68.6% | 68.8% | 80.5% | 104% | 105% | 71.7% | 85.7% | 89.3% | 56.9% | 58.8% | 43% | 51.8% | 13.4 µM | IC50 [21]: 9.89 µM
COc1cc(CNC(=O)CCCC/C=C/C(C)C)ccc1OCc1nnc(Nc2ccccc2F)o1 | 89.7% | 67.3% | 105% | 77.1% | 56.4% | 64.5% | 80.3% | 90.1% | 48% | 84% | 85.2% | 86.6% | 0.69% | 48.6% | 12% | 72.5% | 66.9% | 65% | 58.9% | 10.5 µM | IC50 [21]: 14.4 µM
COc1cc(CNC(=O)CCCC/C=C/C(C)C)ccc1OCc1nnc(Nc2ccc([N+](=O)[O-])cc2)o1 | 101% | 64.2% | 49% | 74.7% | 0% | 62.1% | 33.5% | 81.2% | 64.9% | 48.6% | 78.9% | 46.3% | 11.2% | 11.8% | 22.2% | 37.6% | 55.2% | 48.6% | 53.8% | 8.55 µM | IC50 [21]: 5.41 µM; Activity [22]: Non-Toxic; inhibition [23]: Dose-dependent effect; Activity [24]: Dose-dependent effect; Activity [25]: Active; Activity [26]: 61.8%; Activity [27]: 59.13%; Activity [28]: 11.81%; Activity [29]: 8.706%; Activity [30]: 8.07%; Activity [31]: 8.29%; Activity [32]: 21.15%; Activity [33]: Active; Activity [34]: inactive; Activity [35]: inactive; Activity [36]: inactive; inhibition [37]: Active

— ChEMBL document CHEMBL5055675, “Apoptosis Inducing 1,3,4-Oxadiazole Conjugates of Capsaicin: Their In Vitro Antiproliferative and In Silico Studies” (ACS Med Chem Lett, 2021)
